Measured values reported in PMC12195740, “Discovery of Novel Imidazothiazole-Based Hydroxamic Acid Derivatives as Potent Indoleamine 2,3-Dioxygenase 1 and Histone Deacetylase 6 Dual Inhibitors” (Molecules, 2025).

Columns and labels:
[1] = target: T1, HDAC6 human recombinant enzyme (Homo sapiens, UniProt Q9UBN7); assay: HDAC6 enzyme inhibitory activity assay; type: biochemical
T1 sequence (Q9UBN7 1-1215): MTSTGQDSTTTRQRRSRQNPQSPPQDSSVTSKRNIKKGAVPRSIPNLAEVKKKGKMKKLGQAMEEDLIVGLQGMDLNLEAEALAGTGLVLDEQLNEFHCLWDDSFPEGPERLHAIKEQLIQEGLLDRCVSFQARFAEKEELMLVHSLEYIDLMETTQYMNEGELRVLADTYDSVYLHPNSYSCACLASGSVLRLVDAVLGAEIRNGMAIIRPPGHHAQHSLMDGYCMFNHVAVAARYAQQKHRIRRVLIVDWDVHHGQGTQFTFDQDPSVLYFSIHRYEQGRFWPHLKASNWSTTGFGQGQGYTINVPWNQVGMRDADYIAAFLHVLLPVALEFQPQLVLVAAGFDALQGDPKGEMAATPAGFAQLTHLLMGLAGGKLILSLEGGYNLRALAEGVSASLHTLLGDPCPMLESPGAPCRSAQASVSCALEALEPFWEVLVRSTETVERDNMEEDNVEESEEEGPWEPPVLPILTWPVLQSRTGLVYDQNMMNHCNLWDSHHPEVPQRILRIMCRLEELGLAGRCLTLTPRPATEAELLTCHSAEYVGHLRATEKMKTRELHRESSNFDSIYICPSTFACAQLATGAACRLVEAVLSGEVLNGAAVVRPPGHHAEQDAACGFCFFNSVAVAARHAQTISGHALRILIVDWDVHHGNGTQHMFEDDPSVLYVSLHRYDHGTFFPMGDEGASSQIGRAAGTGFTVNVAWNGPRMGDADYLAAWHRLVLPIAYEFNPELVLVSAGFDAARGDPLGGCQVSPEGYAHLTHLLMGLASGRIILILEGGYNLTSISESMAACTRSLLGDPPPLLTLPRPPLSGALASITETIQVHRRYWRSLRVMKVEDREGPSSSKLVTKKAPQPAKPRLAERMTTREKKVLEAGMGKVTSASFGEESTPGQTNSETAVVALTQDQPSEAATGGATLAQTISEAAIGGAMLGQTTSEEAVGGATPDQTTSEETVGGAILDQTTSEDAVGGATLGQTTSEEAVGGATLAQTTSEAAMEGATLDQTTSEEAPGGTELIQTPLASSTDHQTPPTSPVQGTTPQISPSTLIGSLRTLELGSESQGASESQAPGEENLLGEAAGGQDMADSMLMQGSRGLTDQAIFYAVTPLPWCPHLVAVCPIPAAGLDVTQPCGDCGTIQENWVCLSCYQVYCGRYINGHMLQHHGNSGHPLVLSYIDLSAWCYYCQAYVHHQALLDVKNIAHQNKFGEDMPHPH
Method: Section S1. Biological assays
Section S 1.1. HDAC6 enzyme inhibitory activity assay
Preparation of Master Mix. Trichostatin A in DMSO, Fluorogenic HDAC substrate 3, and HDAC6 human recombinant enzyme were diluted to 20 μM, 200 μM, and 7 ng/uL, respectively, using HDAC Assay Buffer.BSA was dissolved in 1 mL of distilled water to make a BSA solution at a concentration of 1 mg/mL. A certain amount of Fluorogenic HDAC substrate 3, BSA and HDAC Assay Buffer were mixed well to make a master mix, and 40 μL of the master mix was added to each well of a 96-well plate. In the drug administration group, 5 μL of Trichostatin A in DMSO and HDAC6 human recombinant enzyme were added to each well. 5 μL of HDAC Assay Buffer and HDAC6 human recombinant enzyme were added to each well of the blank group, and incubated for 30 min at 37 °C. Finally, 50 μL of undiluted HDAC substrate 3, BSA and HDAC Assay Buffer were added to each well. 50 μL of 2x HDAC Developer was added to each well and incubated at room temperature for 15 min. The samples were read in an enzyme marker with an excitation wavelength in the range of 350-380 nm and an emission light in the range of 440-460 nm.
The values of fluorescence intensities were read and the inhibition rate and IC50 were calculated. […]

[2] = test system: SW480 cells; assay: Cell viability (MTT) assay, SW480; conditions: Homo sapiens, SW480, 48 h, read-out: Antiproliferative IC50, SW480
Method: Section S 1.3 Cell viability assays
Cell Bank at the Chinese Academy of Sciences.
DMEM and FBS were obtained from Gibco-Thermo (BRL Co. Ltd., USA).
another 48 h. The cells were stained with 10 μl of MTT at incubator for approximately 4 h. The medium was discarded and replaced by 100 mL DMSO. The O.D. value was read at 570/630 nm with a spectrophotometer.

[3] = target: HDAC4 (Homo sapiens, UniProt P56524); assay: HDAC isoform selectivity assay, HDAC4; type: biochemical; conditions: read-out: HDAC4 % inhibition rate at 10 μM
Chain of HDAC4 (P56524 whole entry, species assumed, canonical isoform): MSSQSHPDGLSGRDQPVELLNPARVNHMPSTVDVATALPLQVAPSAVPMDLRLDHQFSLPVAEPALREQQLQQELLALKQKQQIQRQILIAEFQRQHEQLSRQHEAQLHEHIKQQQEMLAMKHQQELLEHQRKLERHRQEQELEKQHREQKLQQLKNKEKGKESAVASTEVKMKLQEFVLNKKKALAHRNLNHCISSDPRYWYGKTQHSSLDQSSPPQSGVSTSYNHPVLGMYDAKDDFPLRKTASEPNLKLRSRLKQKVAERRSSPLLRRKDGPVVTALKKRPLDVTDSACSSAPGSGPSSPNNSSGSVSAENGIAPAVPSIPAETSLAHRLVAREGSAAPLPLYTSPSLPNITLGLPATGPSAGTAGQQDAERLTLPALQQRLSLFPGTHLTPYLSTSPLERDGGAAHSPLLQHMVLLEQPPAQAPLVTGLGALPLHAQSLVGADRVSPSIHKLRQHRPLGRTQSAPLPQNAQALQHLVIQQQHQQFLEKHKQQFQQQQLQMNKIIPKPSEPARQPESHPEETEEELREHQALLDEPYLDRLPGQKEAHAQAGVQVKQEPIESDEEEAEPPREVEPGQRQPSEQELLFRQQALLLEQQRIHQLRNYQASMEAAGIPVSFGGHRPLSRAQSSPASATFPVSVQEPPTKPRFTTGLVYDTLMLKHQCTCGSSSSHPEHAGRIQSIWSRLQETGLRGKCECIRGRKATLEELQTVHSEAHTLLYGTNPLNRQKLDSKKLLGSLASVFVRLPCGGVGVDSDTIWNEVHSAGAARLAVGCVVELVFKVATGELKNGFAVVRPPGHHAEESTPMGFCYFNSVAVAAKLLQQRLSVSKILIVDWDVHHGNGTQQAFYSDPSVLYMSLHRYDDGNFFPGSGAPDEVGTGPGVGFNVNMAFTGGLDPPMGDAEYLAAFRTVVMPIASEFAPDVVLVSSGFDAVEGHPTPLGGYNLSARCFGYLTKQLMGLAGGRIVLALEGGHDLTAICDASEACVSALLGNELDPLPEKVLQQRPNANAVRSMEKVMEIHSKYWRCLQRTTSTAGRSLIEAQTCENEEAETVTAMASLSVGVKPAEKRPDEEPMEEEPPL

[4] = test system: CT26 tumors; assay: In vivo antitumor efficacy, CT26 tumor-bearing BALB/c mice; conditions: 150 mg/kg ip every 3 days for 21 days
Method: After that, fixed cells were washed with PBS. Then, cells were isolated by centrifugation and stained with propidium iodide (KeyGEN BioTECH, China) for 30 min. The samples were measured using flow cytometry and analyzed by Flowjo software.
Section S 1.6 Western blot assay […]
earlier were obtained by lysing the cells in ice-cold RIPA buffer with protease and phosphatase inhibitor and stored at -20°C for future use. The protein concentrations were quantified by the Bradford method (Bio-Rad) using a Multimode Varioscan instrument (Thermo Fischer Scientific). […]
and transferred to a polyvinylidene difluoride (PVDF) membrane (Amersham Biosciences). After the membrane was blocked at room temperature for 2 h in blocking solution, primary antibody was added and incubated at 4°C overnight. Ac-α-tubulin, Ac-histone H3 and GAPDH antibodies were purchased from Imgenex, USA. After three TBST washes, the membrane was incubated with corresponding horseradish peroxidase-labeled secondary antibody (1:2,000) (Santa Cruz) at room temperature for 1 h. Membranes were washed with TBST three times for 15 min and the protein bands were detected with chemiluminescence reagent (Thermo Fischer Scientific). The X-ray films were developed using developer and fixed with fixer solution.
Section S 1.7 In vivo antitumor efficacy […]
line CT-26 in BALB/c mice as described previously. […]

IC50 [1]: 0.0582 µM | Selectivity Index (SI) = HDAC1 IC50 value/HDAC6 IC50 value ([1]; HDAC1/HDAC6): 18.51 | inhibition at 1 µM ([1]; read-out: HDAC6 Inhibition Rate at 1 μM): 90.5% | IC50 [2]: 23.4 ± 3.86 µM | inhibition at 10 µM [3]: 9.58%
Structure (SMILES): O=C(CCCCCCNc1ccc(NC(=O)c2cnc3scc(-c4ccc(Br)cc4)n23)cc1)NO [Compound 10e, 3-(4-Bromophenyl)-N-{4-[(7-(hydroxyamino)-7-oxoheptyl)amino]phenyl}imidazo[2,1-b]thiazole-5-carboxamide]
relative tumor volume growth rate (T/C) [4]: 38.32% | tumor growth inhibition (TGI) [4]: 60.2%
